≈ marks a conversion by molar mass, not a printed value. Like-named read-outs stand apart in the source and are kept apart here.
What was measured:
Staphylococcus = test: Selective activity: geometric mean MIC in Staphylococcus; type: cell-based; details: for Geometric Mean MIC Staphylococcus / MIC: geometric mean over Staphylococcus strains; for Selectivity Enterococcus/Staphylococcus: ratio of geometric mean MIC Enterococcus to geometric mean MIC Staphylococcus
Enterococcus = test: Selective activity: geometric mean MIC in Enterococcus; type: cell-based; details: geometric mean over Enterococcus strains
human MAO-A = biological target: T1, human MAO-A (Homo sapiens, UniProt P21397); test: In vitro MAO-A enzymatic activity (kynuramine substrate, fluorescence); type: biochemical; details: compound at 10 μM
T1 construct: purchased Gentest, BD, USA; host or cells: SF9 insect cells (membranes)
T1 sequence (P21397 1-527): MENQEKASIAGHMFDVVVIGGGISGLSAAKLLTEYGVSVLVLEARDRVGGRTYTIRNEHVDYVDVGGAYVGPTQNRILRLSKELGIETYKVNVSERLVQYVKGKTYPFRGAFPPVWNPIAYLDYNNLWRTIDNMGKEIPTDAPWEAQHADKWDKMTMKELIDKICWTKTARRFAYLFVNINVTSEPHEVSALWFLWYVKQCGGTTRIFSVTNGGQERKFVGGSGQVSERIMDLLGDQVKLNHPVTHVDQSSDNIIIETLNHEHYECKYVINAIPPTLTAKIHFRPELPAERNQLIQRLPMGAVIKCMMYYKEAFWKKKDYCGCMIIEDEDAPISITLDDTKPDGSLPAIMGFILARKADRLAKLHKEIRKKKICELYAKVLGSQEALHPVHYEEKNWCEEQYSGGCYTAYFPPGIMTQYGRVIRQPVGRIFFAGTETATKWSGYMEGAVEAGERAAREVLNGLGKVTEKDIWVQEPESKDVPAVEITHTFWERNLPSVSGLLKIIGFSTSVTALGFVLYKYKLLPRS

[1] = test system: S. aureus ATCC 25923 MS 319; test: MIC, standard microdilution method (NCCLS M7-A5); type: cell-based, Staphylococcus aureus; details: for MIC: Staphylococcus aureus, ATCC25923, read-out: In vitro activities against bacteria, MIC
[2] = test system: S. aureus ATCC 43300 MR 214; test: MIC, standard microdilution method (NCCLS M7-A5); type: cell-based, Staphylococcus aureus; details: for MIC: Staphylococcus aureus, ATCC43300, read-out: In vitro activities against bacteria, MIC
[3] = test system: Moxorella, Pasteurella and Bacteroides spp.; details: background literature; cited from earlier work
[4] = test system: S. pneumoniae ATCC 49619 PR 215; test: MIC, standard microdilution method (NCCLS M7-A5); type: cell-based, Streptococcus pneumoniae; details: for MIC: Streptococcus pneumoniae, ATCC49619, read-out: In vitro activities against bacteria, MIC
[5] = test system: S. epidermidis ATCC 12228 MR 11; test: microbe, parasite or virus in culture; type: cell-based, Staphylococcus epidermidis; details: for MIC: Staphylococcus epidermidis, ATCC12228, read-out: In vitro activities against bacteria, MIC
human MAO-B = biological target: T2, human MAO-B (Homo sapiens, UniProt P27338); test: In vitro MAO-B enzymatic activity (kynuramine substrate, fluorescence); type: biochemical; details: human MAO-B, compound at 1 μM
T2 construct: purchased Gentest, BD, USA; host or cells: SF9 insect cells (membranes)
T2 sequence (P27338 1-520): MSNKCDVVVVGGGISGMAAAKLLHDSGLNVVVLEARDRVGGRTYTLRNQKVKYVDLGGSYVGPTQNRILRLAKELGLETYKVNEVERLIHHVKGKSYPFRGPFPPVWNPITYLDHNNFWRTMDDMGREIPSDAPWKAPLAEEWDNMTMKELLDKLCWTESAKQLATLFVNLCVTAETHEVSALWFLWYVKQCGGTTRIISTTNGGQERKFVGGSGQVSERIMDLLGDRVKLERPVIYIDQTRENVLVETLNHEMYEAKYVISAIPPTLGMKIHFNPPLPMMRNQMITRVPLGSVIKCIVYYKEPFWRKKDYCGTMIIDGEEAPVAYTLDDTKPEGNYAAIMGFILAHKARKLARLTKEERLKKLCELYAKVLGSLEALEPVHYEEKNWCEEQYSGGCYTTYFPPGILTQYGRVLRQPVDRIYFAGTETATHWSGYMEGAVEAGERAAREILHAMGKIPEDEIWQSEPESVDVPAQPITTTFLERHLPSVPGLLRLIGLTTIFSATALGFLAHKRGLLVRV

[6] = S. pneumoniae ATCC 49619 PR 215
[7] = S. epidermidis ATCC 12228 MR 11
[8] = listed as Comparartive Example 1

C=CC(=O)N1CCN(c2ccc(N3C[C@H](CNC(=O)c4cc5ccc(OC)cc5nc4C)OC3=O)cc2F)CC1 [Ex. 24]
Geometric Mean MIC Staphylococcus (Staphylococcus): 0.6 µg/mL
Selectivity Enterococcus/Staphylococcus (Staphylococcus): 27.0
Geometric Mean MIC Enterococcus (Enterococcus): 16 µg/mL

CC(=O)NC[C@H]1CN(c2ccc(N3CCOCC3)c(F)c2)C(=O)O1 [Linezolid, N-[[(5S)-3-[3-fluoro-4-(4-morpholinyl)phenyl]-2-oxo-5-oxazolidinyl]methyl]acetamide, reference compound]
inhibition at 10 µM (human MAO-A; read-out: MAO-A % inh (10 μM)): 41%
MIC ([1]; S. aureus ATCC 25923 MS 319): 2 µg/mL (≈ 5.93 µM)
MIC ([2]; S. aureus ATCC 43300 MR 214): 1 µg/mL (≈ 2.96 µM)
MIC [3]: 2 to 8 µg/mL
MIC [4, 6]: 2 µg/mL (≈ 5.93 µM)
MIC [5]: 1 µg/mL (≈ 2.96 µM)
inhibition at 1 µM (human MAO-B; read-out: MAO-B % inh (1 μM)): 62%

COc1ccc2cc(C(=O)NC[C@H]3CN(c4ccc(N5CCN(C(=O)C6=NNC(=O)CC6)CC5)c(F)c4)C(=O)O3)c(C)nc2c1 [Ex. 29]
Geometric Mean MIC Staphylococcus (Staphylococcus): 1.7 µg/mL
Selectivity Enterococcus/Staphylococcus (Staphylococcus): 18.8
Geometric Mean MIC Enterococcus (Enterococcus): 32 µg/mL

O=C(NC[C@H]1CN(c2ccc(N3CCOCC3)c(F)c2)C(=O)O1)c1cc2cc([N+](=O)[O-])ccc2o1 [Comparative Example 3, reference compound]
Geometric Mean MIC Staphylococcus (Staphylococcus): 0.8 µg/mL
Selectivity Enterococcus/Staphylococcus (Staphylococcus): 0.9
Geometric Mean MIC Enterococcus (Enterococcus): 0.7 µg/mL

COc1ccc2cc(C(=O)NC[C@H]3CN(c4ccc(N5CCN(C(=O)c6cccnc6)CC5)c(F)c4)C(=O)O3)c(C)nc2c1 [Ex. 42]
MAO-A % inh (10 μM) (human MAO-A): 5%
In vitro activities against bacteria, MIC [1]: 1.00 µg/mL
In vitro activities against bacteria, MIC [2]: 0.06 µg/mL
In vitro activities against bacteria, MIC [4]: 1.00 µg/mL
In vitro activities against bacteria, MIC [5]: 0.5 µg/mL
MAO-B % inh (1 μM) (human MAO-B): 7%

COc1ccc2cc(C(=O)NC[C@H]3CN(c4ccc(N5CCN(C(=O)CO)CC5)c(F)c4)C(=O)O3)c(C)nc2c1 [Ex. 35]
Geometric Mean MIC Staphylococcus (Staphylococcus): 0.6 µg/mL
Selectivity Enterococcus/Staphylococcus (Staphylococcus): 8.3
Geometric Mean MIC Enterococcus (Enterococcus): 5.0

O=C(NC[C@H]1CN(c2ccc(N3CCOCC3)c(F)c2)C(=O)O1)c1coc2ccccc12 [Comparative Example 2, reference compound]
Geometric Mean MIC Staphylococcus (Staphylococcus): 12.7 µg/mL
Selectivity Enterococcus/Staphylococcus (Staphylococcus): 0.3
Geometric Mean MIC Enterococcus (Enterococcus): 3.4 µg/mL

COc1ccc2cc(C(=O)NC[C@H]3CN(c4ccc(N5CCOCC5)c(F)c4)C(=O)O3)c(C)nc2c1 [Ex. 1, 7-methoxy-2-methyl-N-[[(5S)-3-[3-fluoro-4-(4-morpholinyl)phenyl]-2-oxo-5-oxazolidinyl]methyl]-3-quinolinecarboxamide]
MIC (Staphylococcus): 0.6 µg/mL (≈ 1.21 µM)
Selectivity Enterococcus/Staphylococcus (Staphylococcus): 9.5
Geometric Mean MIC Enterococcus (Enterococcus): 5.7 µg/mL

COc1ccc2nc(C)c(C(=O)NC[C@H]3CN(c4ccc(N5CCOCC5)c(F)c4)C(=O)O3)cc2c1 [Ex. 18]
MIC (Staphylococcus): 1 µg/mL (≈ 2.02 µM)
Selectivity Enterococcus/Staphylococcus (Staphylococcus): 8.0
Geometric Mean MIC Enterococcus (Enterococcus): 8 µg/mL

COc1ccc2cc(C(=O)NC[C@H]3CN(c4ccc(N5CCN(C(C)=O)CC5)c(F)c4)C(=O)O3)c(C)nc2c1 [Ex. 3, 7-methoxy-2-methyl-N-[[(5S)-3-[3-fluoro-4-(4′-acetyl-4-piperazinyl)-phenyl]-2-oxo-5-oxazolidinyl]methyl]-3-quinolinecarboxamide]
MIC (Staphylococcus): 0.4 µg/mL (≈ 0.747 µM)
Selectivity Enterococcus/Staphylococcus (Staphylococcus): 14.3
Geometric Mean MIC Enterococcus (Enterococcus): 5.7 µg/mL

COc1ccc2cc(C(=O)NC[C@H]3CN(c4ccc(N5CCN(C(=O)C6CC6)CC5)c(F)c4)C(=O)O3)c(C)nc2c1 [Ex. 34]
Geometric Mean MIC Staphylococcus (Staphylococcus): 0.4 µg/mL
Selectivity Enterococcus/Staphylococcus (Staphylococcus): 100
MAO-A % inh (10 μM) (human MAO-A): 7%
In vitro activities against bacteria, MIC ([1]; S. aureus ATCC 25923 MS 319): 0.50 µg/mL
Geometric Mean MIC Enterococcus (Enterococcus): 40.3 µg/mL
In vitro activities against bacteria, MIC ([2]; S. aureus ATCC 43300 MR 214): 0.50 µg/mL
In vitro activities against bacteria, MIC [4, 6]: 0.50 µg/mL
In vitro activities against bacteria, MIC [5, 7]: 0.50 µg/mL
MAO-B % inh (1 μM) (human MAO-B): 8%

COc1ccc2cc(C(=O)NC[C@H]3CN(c4ccc(N5CCOCC5)c(F)c4)C(=O)O3)c(C)nc2c1 [compound 1, reference compound]
Geometric Mean MIC Staphylococcus (Staphylococcus): 5.7 µg/mL
Selectivity Enterococcus/Staphylococcus (Staphylococcus; [8]): 0.8
Geometric Mean MIC Enterococcus (Enterococcus; [8]): 4.8 µg/mL

COc1ccc2cc(C(=O)NC[C@H]3CN(c4ccc(N5CCN(C(=O)c6c[nH]cn6)CC5)c(F)c4)C(=O)O3)c(C)nc2c1 [Ex. 31]
In vitro activities against bacteria, MIC ([1]; S. aureus ATCC 25923 MS 319): 4.00 µg/mL
In vitro activities against bacteria, MIC ([2]; S. aureus ATCC 43300 MR 214): 2.00 µg/mL
In vitro activities against bacteria, MIC [4, 6]: 4.00 µg/mL
In vitro activities against bacteria, MIC [5, 7]: 2.00 µg/mL

COc1ccc2cc(C(=O)NC[C@H]3CN(c4ccc(N5CCS(=O)(=O)CC5)c(F)c4)C(=O)O3)c(C)nc2c1 [Ex. 8, 7-methoxy-2-methyl-N-[[(5S)-3-[3-fluoro-4-(1,1-dioxothiomorpholin-4-yl)-phenyl]-2-oxo-5-oxazolidinyl]methyl]-3-quinolinecarboxamide]
MIC ([1]; S. aureus ATCC 25923 MS 319): 2 µg/mL (≈ 3.69 µM)
MIC ([2]; S. aureus ATCC 43300 MR 214): 2 µg/mL (≈ 3.69 µM)
MIC [4, 6]: 1 µg/mL (≈ 1.84 µM)
MIC [5]: 2 µg/mL (≈ 3.69 µM)

From patent US7759351B2, “Oxazolidinone compounds, and compositions and methods related thereto” (Ferrer Internacional, S.A., priority 2005, dated 2010)
